Measurements from article PMC2248166, “Quantitative peptide binding motifs for 19 human and mouse MHC class I molecules derived using positional scanning combinatorial peptide libraries” (Immunome Research, 2008).
Where a SMILES comes first, the peptide text is derived from it.

Target: HLA A*3201 (Homo sapiens, UniProt P04439, A270S/D101S/D185E/E176V/E277Q/F133L/G103R/G107R/G231S/H175R/I121M/I218V/I322F/K168Q/L105A/L300P/L318F/M331R/P208A/P217A/Q94H/R106L/R138Q/S129P/T104I/T323A/T345S/V100E/V321M/V358M)
Assay: biochemical
Type: binding

SMILES | IC50
CC[C@H](C)[C@H](NC(=O)[C@@H](NC(=O)[C@@H](NC(=O)[C@H](CC(=O)O)NC(=O)[C@@H](NC(=O)[C@H](Cc1ccccc1)NC(=O)[C@@H](NC(=O)[C@@H](NC(=O)[C@@H](N)CO)[C@@H](C)CC)C(C)C)C(C)C)C(C)C)[C@@H](C)CC)C(=O)O [3102.0355] (H-SIVFVDVII-OH) | 59 nM
CC[C@H](C)[C@H](NC(=O)CNC(=O)[C@@H](NC(=O)[C@@H](NC(=O)[C@H](CC(C)C)NC(=O)CNC(=O)[C@H](CS)NC(=O)[C@@H](NC(=O)[C@@H](N)C(C)C)[C@@H](C)CC)[C@@H](C)CC)C(C)C)C(=O)O [3102.0356] (H-VICGLIVGI-OH) | 26 nM
CC[C@H](C)[C@H](NC(=O)[C@H](CO)NC(=O)[C@@H](NC(=O)[C@@H](NC(=O)[C@H](Cc1c[nH]c2ccccc12)NC(=O)[C@H](CCCCN)NC(=O)[C@H](CCSC)NC(=O)[C@H](CCSC)NC(=O)[C@@H](N)CCSC)[C@@H](C)CC)[C@@H](C)CC)C(=O)O [3102.0357] (H-MMMKWIISI-OH) | 0.17 nM
CC[C@H](C)[C@H](NC(=O)[C@H](CC(C)C)NC(=O)[C@H](CC(N)=O)NC(=O)[C@H](C)NC(=O)[C@H](Cc1ccccc1)NC(=O)[C@H](CCCNC(=N)N)NC(=O)[C@H](CO)NC(=O)[C@@H](NC(=O)[C@@H](N)CCCNC(=N)N)[C@@H](C)CC)C(=O)O [3102.0360] (H-RISRFANLI-OH) | 6.2 nM
CC[C@H](C)[C@H](N)C(=O)N[C@H](C(=O)N[C@@H](CCSC)C(=O)N[C@H](C(=O)N[C@@H](CC(N)=O)C(=O)N[C@@H](CO)C(=O)N[C@@H](CC(C)C)C(=O)N[C@H](C(=O)N[C@@H](Cc1ccc(O)cc1)C(=O)O)[C@@H](C)O)C(C)C)[C@@H](C)O [3102.0363] (H-ITMVNSLTY-OH) | 96 nM
CC[C@H](C)[C@H](NC(=O)[C@H](CO)NC(=O)[C@@H](N)CCCCN)C(=O)N[C@@H](CC(N)=O)C(=O)N[C@H](C(=O)N[C@@H](CCC(=O)O)C(=O)N[C@@H](Cc1ccc(O)cc1)C(=O)N[C@@H](CCCNC(=N)N)C(=O)N[C@@H](Cc1ccccc1)C(=O)O)C(C)C [3102.0364] (H-KSINVEYRF-OH) | 1.5 nM
CSCC[C@H](NC(=O)[C@@H](N)CCCCN)C(=O)N[C@@H](CC(=O)O)C(=O)N[C@@H](CC(N)=O)C(=O)NCC(=O)N[C@H](C(=O)N[C@@H](CC(C)C)C(=O)N[C@@H](CCC(=O)O)C(=O)N[C@@H](Cc1ccccc1)C(=O)O)[C@@H](C)O [3102.0365] (H-KMDNGTLEF-OH) | 0.92 nM
CC[C@H](C)[C@H](NC(=O)[C@H](CO)NC(=O)[C@@H](NC(=O)[C@H](CCC(=O)O)NC(=O)[C@H](CC(N)=O)NC(=O)[C@H](Cc1ccc(O)cc1)NC(=O)[C@@H](NC(=O)[C@@H](NC(=O)[C@@H](N)CCCNC(=N)N)[C@@H](C)O)[C@@H](C)CC)[C@@H](C)O)C(=O)O [3102.0366] (H-RTIYNETSI-OH) | 1 nM
CC[C@H](C)[C@H](NC(=O)[C@@H](NC(=O)[C@H](CC(C)C)NC(=O)[C@H](C)NC(=O)[C@@H](NC(=O)[C@@H](NC(=O)[C@@H](NC(=O)[C@@H](NC(=O)[C@@H](N)Cc1c[nH]cn1)[C@@H](C)CC)[C@@H](C)CC)[C@@H](C)CC)C(C)C)[C@@H](C)O)C(=O)O [3102.0368] (H-HIIIVALTI-OH) | 79 nM
CC[C@H](C)[C@H](N)C(=O)N[C@H](C(=O)N[C@@H](Cc1ccc(O)cc1)C(=O)NCC(=O)N[C@@H](CCCNC(=N)N)C(=O)N[C@@H](CO)C(=O)N[C@@H](CC(N)=O)C(=O)N[C@@H](C)C(=O)N[C@H](C(=O)O)[C@@H](C)CC)C(C)C [3102.0369] (H-IVYGRSNAI-OH) | 3.2 nM
CC[C@H](C)[C@H](NC(=O)[C@@H](NC(=O)[C@H](Cc1ccccc1)NC(=O)[C@H](CC(C)C)NC(=O)[C@H](Cc1ccccc1)NC(=O)[C@@H](NC(=O)[C@@H](NC(=O)[C@H](CC(C)C)NC(=O)[C@@H](N)CCCCN)[C@@H](C)CC)[C@@H](C)O)C(C)C)C(=O)O [3102.0370] (H-KLITFLFVI-OH) | 0.41 nM
CC[C@H](C)[C@H](NC(=O)[C@@H](NC(=O)[C@H](Cc1ccc(O)cc1)NC(=O)[C@H](CCC(=O)O)NC(=O)[C@H](CCCCN)NC(=O)[C@H](Cc1ccccc1)NC(=O)[C@H](CC(N)=O)NC(=O)[C@H](CC(C)C)NC(=O)[C@@H](N)C(C)C)[C@@H](C)O)C(=O)O [3102.0371] (H-VLNFKEYTI-OH) | 8.1 nM
CC[C@H](C)[C@H](NC(=O)[C@@H](NC(=O)[C@H](CC(C)C)NC(=O)[C@@H](NC(=O)[C@H](CO)NC(=O)[C@H](CO)NC(=O)[C@@H](NC(=O)[C@H](CO)NC(=O)[C@H](C)N)[C@@H](C)CC)C(C)C)[C@@H](C)O)C(=O)O [3102.0373] (H-ASISSVLTI-OH) | 13 nM
CC[C@H](C)[C@H](NC(=O)[C@H](CC(N)=O)NC(=O)[C@H](Cc1ccc(O)cc1)NC(=O)[C@H](CC(=O)O)NC(=O)[C@@H](NC(=O)[C@H](Cc1ccc(O)cc1)NC(=O)[C@H](CC(N)=O)NC(=O)[C@H](CC(C)C)NC(=O)[C@@H](N)CCSC)C(C)C)C(=O)O [3102.0374] (H-MLNYVDYNI-OH) | 1.6 nM
CC[C@H](C)[C@H](N)C(=O)N[C@@H](CC(C)C)C(=O)N1CCC[C@H]1C(=O)N[C@H](C(=O)N[C@H](C(=O)N[C@@H](Cc1ccccc1)C(=O)N[C@@H](CC(C)C)C(=O)N[C@@H](CO)C(=O)N[C@H](C(=O)O)[C@@H](C)CC)[C@@H](C)CC)C(C)C [3102.0375] (H-ILPVIFLSI-OH) | 4.5 nM
CC[C@H](C)[C@H](NC(=O)[C@H](CCC(=O)O)NC(=O)[C@H](Cc1ccccc1)NC(=O)[C@H](CC(N)=O)NC(=O)[C@@H]1CCCN1C(=O)[C@H](CC(N)=O)NC(=O)[C@H](Cc1ccccc1)NC(=O)[C@@H](NC(=O)[C@@H](N)CC(C)C)[C@@H](C)O)C(=O)O [3102.0377] (H-LTFNPNFEI-OH) | 5.2 nM
CC[C@H](C)[C@H](NC(=O)[C@H](Cc1c[nH]cn1)NC(=O)[C@@H](NC(=O)[C@H](CCSC)NC(=O)[C@H](CCSC)NC(=O)[C@H](CCCCN)NC(=O)[C@H](CCSC)NC(=O)[C@@H](NC(=O)[C@@H](N)CCSC)[C@@H](C)O)C(C)C)C(=O)O [3102.0378] (H-MTMKMMVHI-OH) | 4.8 nM
CC[C@H](C)[C@H](NC(=O)[C@H](C)NC(=O)[C@H](Cc1ccc(O)cc1)NC(=O)[C@H](CO)NC(=O)[C@H](Cc1c[nH]cn1)NC(=O)[C@H](Cc1ccccc1)NC(=O)[C@H](CC(C)C)NC(=O)[C@H](CC(C)C)NC(=O)[C@@H](N)CC(C)C)C(=O)O [3102.0379] (H-LLLFHSYAI-OH) | 11 nM
CC[C@H](C)[C@H](NC(=O)[C@@H](N)Cc1c[nH]cn1)C(=O)N[C@@H](Cc1ccc(O)cc1)C(=O)N[C@@H](Cc1ccccc1)C(=O)N[C@H](C(=O)N[C@@H](CO)C(=O)N[C@@H](CC(C)C)C(=O)N[C@@H](CC(C)C)C(=O)N[C@@H](CC(C)C)C(=O)O)C(C)C [3102.0380] (H-HIYFVSLLL-OH) | 15 nM
CC(C)C[C@H](NC(=O)[C@@H](NC(=O)[C@@H](NC(=O)[C@@H](NC(=O)[C@@H](NC(=O)[C@@H](NC(=O)[C@H](CC(C)C)NC(=O)[C@@H](NC(=O)[C@@H](N)CCCCN)[C@@H](C)O)[C@@H](C)O)[C@@H](C)O)[C@@H](C)O)C(C)C)C(C)C)C(=O)O [3102.0381] (H-KTLTTTVVL-OH) | 9.4 nM
CC[C@H](C)[C@H](N)C(=O)N[C@H](C(=O)N[C@H](C(=O)N[C@@H](Cc1ccc(O)cc1)C(=O)N[C@@H](Cc1ccccc1)C(=O)N[C@@H](CCCNC(=N)N)C(=O)N[C@@H](CCCNC(=N)N)C(=O)N[C@H](C(=O)N[C@H](C(=O)O)[C@@H](C)CC)[C@@H](C)O)C(C)C)[C@@H](C)O [3102.0382] (H-ITVYFRRTI-OH) | 26 nM
CC[C@H](C)[C@H](NC(=O)[C@@H](NC(=O)[C@H](CC(C)C)NC(=O)[C@H](CO)NC(=O)[C@H](C)NC(=O)CNC(=O)[C@H](CC(N)=O)NC(=O)[C@H](CO)NC(=O)[C@@H](N)CC(C)C)[C@@H](C)O)C(=O)O [3102.0383] (H-LSNGASLTI-OH) | 74 nM
CC[C@H](C)[C@H](NC(=O)[C@@H]1CCCN1C(=O)[C@H](CC(C)C)NC(=O)[C@@H](NC(=O)[C@H](CC(N)=O)NC(=O)[C@H](Cc1ccc(O)cc1)NC(=O)[C@H](CCSC)NC(=O)[C@@H](NC(=O)[C@@H](N)Cc1ccc(O)cc1)[C@@H](C)CC)[C@@H](C)CC)C(=O)O [3102.0384] (H-YIMYNILPI-OH) | 39 nM
CC[C@H](C)[C@H](NC(=O)[C@@H](NC(=O)[C@H](CC(N)=O)NC(=O)[C@H](CC(N)=O)NC(=O)[C@H](Cc1ccc(O)cc1)NC(=O)[C@H](CC(C)C)NC(=O)[C@@H](NC(=O)[C@@H](NC(=O)[C@@H](N)Cc1c[nH]cn1)[C@@H](C)O)[C@@H](C)CC)[C@@H](C)O)C(=O)O [3102.0385] (H-HTILYNNTI-OH) | 1.9 nM
CC[C@H](C)[C@H](NC(=O)[C@H](CCCCN)NC(=O)CNC(=O)[C@H](CC(N)=O)NC(=O)[C@@H](NC(=O)[C@@H](N)CCSC)[C@@H](C)O)C(=O)N[C@@H](CC(N)=O)C(=O)N[C@@H](CO)C(=O)N[C@@H](CC(C)C)C(=O)O [3102.0386] (H-MTNGKINSL-OH) | 22 nM
CC[C@H](C)[C@H](N)C(=O)N[C@H](C(=O)N[C@@H](Cc1ccc(O)cc1)C(=O)N[C@@H](Cc1c[nH]c2ccccc12)C(=O)N[C@@H](CO)C(=O)N[C@@H](CCCNC(=N)N)C(=O)N[C@@H](Cc1ccccc1)C(=O)N[C@H](C(=O)N[C@H](C(=O)O)[C@@H](C)CC)[C@@H](C)O)[C@@H](C)O [3102.0387] (H-ITYWSRFTI-OH) | 2.5 nM
CC[C@H](C)[C@H](NC(=O)[C@H](CO)NC(=O)[C@@H](NC(=O)CNC(=O)[C@H](CC(C)C)NC(=O)[C@@H](NC(=O)[C@H](CO)NC(=O)[C@H](CCSC)NC(=O)[C@@H](N)CCCCN)[C@@H](C)CC)C(C)C)C(=O)O [3102.0388] (H-KMSILGVSI-OH) | 2.4 nM
CC[C@H](C)[C@H](NC(=O)[C@H](CC(N)=O)NC(=O)[C@@H](NC(=O)[C@@H](NC(=O)[C@@H](N)CO)[C@@H](C)O)[C@@H](C)CC)C(=O)N[C@@H](CS)C(=O)N[C@@H](CC(C)C)C(=O)N1CCC[C@H]1C(=O)N[C@@H](Cc1ccc(O)cc1)C(=O)O [3102.0390] (H-STINICLPY-OH) | 32 nM
